Our source for the TGI values is PubChem BioAssay (NCI).

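Exposure lasted 48 hours, with cells grown in 96-well plates and compounds tested at five concentrations. TGI is the concentration that stops growth completely.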 Some results are limits rather than exact numbers.

Holding throughout (assay): growth of human tumour cells (NCI), 48 h
Test [1] has as its system IGROV1 ovarian.
Test [2] relates to UO-31 renal.
The subject of test [3] is U251 CNS.
Test [4] deals with SK-MEL-2 melanoma.
The subject of test [5] is SK-MEL-28 melanoma.
Test [6] relates to OVCAR-8 ovarian.
Test [7] has as its system HOP-92 NSCLC.
In test [8] the test system is SNB-19 CNS.
The test system of test [9] is DU-145 prostate.
Test [10] has as its system RPMI-8226 leukemia.

Consider `Clc1cc(OC2C3CC4CC(C3)CC2C4)nc(Cl)n1` (stereo not given), for which the TGI in test [1] was found to be 23.3 µM; in test [2], 10.8 µM; in test [3], 31.9 µM; in test [4], 25.8 µM; in test [5], 29.1 µM; in test [6], 61.6 µM. Further, the TGI in [7] is 3.41 µM; in [8], > 100 µM; in test [9] it was 39.9 µM; in test [10], 43 µM.
Turning to `O=C1/C(=C/c2ccc(O)cc2)CC/C1=C\c1ccc(O)cc1`, the TGI in test [1], in [2], in test [3], in test [4], in test [5] and in test [6] was > 100 µM in each case. The TGI in [7], in [8], in [9] and in [10] was > 100 µM in each case.
With `Cc1cc(=O)[nH]c(NN2C(Cl)C(=O)C2c2ccccc2O)n1` (stereo not given), the TGI was > 100 µM in test [1]; > 78.1 µM in test [2]; > 100 µM in test [3]; > 100 µM in [4]; > 65.4 µM in test [5]; > 100 µM in test [6]. Also, the TGI in test [7] was 32.4 µM; in test [8] it was > 100 µM; in test [9] it was > 100 µM; in test [10], > 63.2 µM.
`O=[N+]([O-])C(=C1NCCN1)/C(Cl)=C(\Cl)Br`: the TGI was > 100 µM in test [1]; > 100 µM in test [2]; > 100 µM in test [3]; > 100 µM in test [4]; > 77.7 µM in test [5]; > 100 µM in [6]. Besides, the TGI in [7] is > 62.2 µM; in test [8], > 100 µM; in test [9], > 100 µM; in test [10], 62.4 µM.
In the case of `COc1ccc(C(OCC2OC(n3cc(C)c(=O)[nH]c3=O)CC2n2cc(Cn3cc(I)c(=O)[nH]c3=O)nn2)(c2ccccc2)c2ccccc2)cc1` (stereo not given), the TGI in test [1], in test [2], in [3], in [4], in [5] and in [6] was > 100 µM each time. Also, the TGI in test [7], in test [8], in test [9] and in test [10] was > 100 µM each time.
For `Cc1ccc(SCC(CSCCO)OCn2cnc3c2NC(N)=NC32OCCO2)cc1` (stereo not given), the TGI in test [1], in [2], in test [3], in test [4], in test [5] and in [6] was > 100 µM throughout. Further, the TGI in test [7], in [8], in test [9] and in test [10] was > 100 µM in each case.
In the case of `O=c1[nH]cc(N=Cc2cc(Cl)cc(Cl)c2O)c(=O)[nH]1`, the TGI in test [1] is 50.1 µM; in test [2], > 100 µM; in test [3], > 100 µM; in test [4], 41.6 µM; in test [5], 54.5 µM; in test [6], > 100 µM. For the same molecule, the TGI was 89 µM in test [7], > 100 µM in [8], 60.4 µM in test [9] and 70.6 µM in [10].
Regarding `COc1c(C)c(C/C=C(\C)CCCCO[Si](c2ccccc2)(c2ccccc2)C(C)(C)C)c(OC)c(OC)c1OC`, the TGI in test [1] was 42.2 µM; in test [2] it was 19.4 µM; in test [3], > 46.4 µM; in test [4], > 100 µM; in [5], > 100 µM; in test [6], 35.6 µM. The TGI in [7] is > 31.6 µM; in test [8] it was > 46.4 µM; in test [9], 37.6 µM; in test [10] it was > 46.4 µM.
In the case of `O=C(CCC(=O)c1ccc(Cl)cc1)NO`, the TGI in [1], in test [2], in test [3], in test [4], in test [5] and in test [6] was > 100 µM in each case. The TGI in test [7], in test [8], in test [9] and in test [10] was > 100 µM throughout.
Turning to `CNC(=O)OCC1=C(COC(=O)NC)C(C)N(c2ccc(OC)cc2)C1` (stereo not given), the TGI in test [1], in [2], in test [3], in test [4], in [5] and in [6] was > 100 µM throughout. In addition, the TGI in [7], in test [8], in test [9] and in test [10] was > 100 µM throughout.
Turning to `CCC[C@@H](O)C[C@@H]1CCC[C@H](C[C@@H](O)CC)N1C`, the TGI in [1], in test [2], in [3], in test [4], in [5] and in [6] was > 100 µM in each case. Moreover, the TGI is 5.06 µM in [7], > 100 µM in test [8], > 100 µM in test [9] and > 100 µM in test [10].
